From patent US6340689B1 (priority 1999, dated 2002)
Converted amounts (≈) assume the structure as drawn.

What was measured:
[1] = system: L. pneumophila serogroup 1; test: microbe, parasite or virus in culture; type: cell-based, Legionella pneumophila; details: Legionella pneumophila; for MIC: 48 h, read-out: MIC Range; for MIC90: L. pneumophila serogroup 1 (n = 85)
L. longbeacheae = test: organism not typed; type: cell-based; details: for MIC: 48 h, read-out: MIC Range
L. dumoffii = test: organism not typed; type: cell-based; details: for MIC: 48 h, read-out: MIC Range
L. micadadei = test: organism not typed; type: cell-based, L. micdadei; details: for MIC: 48 h, read-out: MIC Range
[2] = system: Erythromycin-susceptible Legionella spp. other than L. pneumophila; type: cell-based; details: Erythromycin-susceptible Legionella spp. (n = 13); 4 × MIC; mean ± SD
[3] = system: L. pneumophila serogroup 5; test: microbe, parasite or virus in culture; type: cell-based; details: Legionella pneumophila; for MIC: 48 h, read-out: MIC Range
[4] = system: L. pneumophila serogroup 7; test: microbe, parasite or virus in culture; type: cell-based; details: Legionella pneumophila; for MIC: 48 h, read-out: MIC Range
[5] = system: L. pneumophila serogroup 2; test: microbe, parasite or virus in culture; type: cell-based; details: Legionella pneumophila; for MIC: 48 h, read-out: MIC Range
[6] = system: L. pneumophila serogroup 4; test: microbe, parasite or virus in culture; type: cell-based; details: Legionella pneumophila; for MIC: 48 h, read-out: MIC Range
[7] = system: Erythromycin-susceptible L. pneumophila; type: cell-based, Legionella pneumophila; details: Erythromycin-susceptible L. pneumophila (n = 15); 4 × MIC; mean ± SD
Other Legionella spp. = test: microbe, parasite or virus in culture; type: cell-based; details: for MIC: 48 h, read-out: MIC Range
[8] = system: L. pneumophila serogroup 8, 9; test: microbe, parasite or virus in culture; type: cell-based; details: Legionella pneumophila; for MIC: 48 h, read-out: MIC Range
[9] = system: L. pneumophila serogroup 3; test: microbe, parasite or virus in culture; type: cell-based; details: Legionella pneumophila; for MIC: 48 h, read-out: MIC Range
[10] = system: L. pneumophila serogroup 6; test: microbe, parasite or virus in culture; type: cell-based; details: Legionella pneumophila; for MIC: 48 h, read-out: MIC Range

| SMILES | MIC50 [1] [µg/mL] | MIC [1] [µg/mL] | MIC90 [1] [µg/mL] | MIC50 (L. longbeacheae) [µg/mL] | MIC90 (L. longbeacheae) [µg/mL] | MIC (L. longbeacheae) [µg/mL] | MIC50 (L. dumoffii) [µg/mL] | MIC90 (L. dumoffii) [µg/mL] | MIC (L. dumoffii) [µg/mL] | MIC50 (L. micadadei) [µg/mL] | MIC90 (L. micadadei) [µg/mL] | MIC (L. micadadei) [µg/mL] | Mean PAE [2] [h] | MIC50 [3] [µg/mL] | MIC90 [3] [µg/mL] | MIC [3] [µg/mL] | MIC50 [4] [µg/mL] | MIC90 [4] [µg/mL] | MIC [4] [µg/mL] | MIC50 [5] [µg/mL] | also measured |
| --- | --- | --- | --- | --- | --- | --- | --- | --- | --- | --- | --- | --- | --- | --- | --- | --- | --- | --- | --- | --- | --- |
| CC[C@H]1OC(=O)[C@H](C)[C@@H](O[C@H]2C[C@@](C)(OC)[C@@H](O)[C@H](C)O2)[C@H](C)[C@@H](O[C@@H]2O[C@H](C)C[C@H](N(C)C)[C@H]2O)[C@](C)(O)C[C@@H](C)CN(C)[C@H](C)[C@@H](O)[C@]1(C)O [Azithromycin] | 0.06 (≈ 0.0801 µM) | 0.008 to 1 (≈ 0.0107 to 1.34 µM) | 0.5 (≈ 0.668 µM) | 0.12 (≈ 0.16 µM) | 0.25 (≈ 0.334 µM) | 0.016 to 0.25 (≈ 0.0214 to 0.334 µM) | 0.12 (≈ 0.16 µM) | 0.25 (≈ 0.334 µM) | 0.12 to 0.25 (≈ 0.16 to 0.334 µM) | 0.25 (≈ 0.334 µM) | 0.25 (≈ 0.334 µM) | 0.016 to 0.25 (≈ 0.0214 to 0.334 µM) | 1.86 ± 2 | 0.03 (≈ 0.0401 µM) | 0.25 (≈ 0.334 µM) | 0.008 to 0.5 (≈ 0.0107 to 0.668 µM) | 0.06 (≈ 0.0801 µM) | 0.06 (≈ 0.0801 µM) | 0.06 (≈ 0.0801 µM) | 0.06 (≈ 0.0801 µM) | MIC90 [5]: 0.12 µg/mL (≈ 0.16 µM); MIC [5]: 0.008 to 0.12 µg/mL (≈ 0.0107 to 0.16 µM); MIC50 [6]: 0.12 µg/mL (≈ 0.16 µM); MIC90 [6]: 0.12 µg/mL (≈ 0.16 µM); MIC [6]: 0.008 to 0.25 µg/mL (≈ 0.0107 to 0.334 µM); Mean PAE [7]: 2.91 ± 3 h; MIC50 (Other Legionella spp.): 0.12 µg/mL (≈ 0.16 µM); MIC90 (Other Legionella spp.): 0.5 µg/mL (≈ 0.668 µM); MIC (Other Legionella spp.): 0.016 to 0.5 µg/mL (≈ 0.0214 to 0.668 µM); MIC50 [8]: 0.06 µg/mL (≈ 0.0801 µM); MIC90 [8]: 0.06 µg/mL (≈ 0.0801 µM); MIC [8]: 0.06 µg/mL (≈ 0.0801 µM); MIC50 [9]: 0.12 µg/mL (≈ 0.16 µM); MIC90 [9]: 0.25 µg/mL (≈ 0.334 µM); MIC [9]: 0.016 to 0.25 µg/mL (≈ 0.0214 to 0.334 µM); MIC50 [10]: 0.06 µg/mL (≈ 0.0801 µM); MIC90 [10]: 0.12 µg/mL (≈ 0.16 µM); MIC [10]: 0.016 to 0.25 µg/mL (≈ 0.0214 to 0.334 µM) |
| CC[C@H]1OC(=O)[C@H](C)[C@@H](O[C@H]2C[C@@](C)(OC)[C@@H](O)[C@H](C)O2)[C@H](C)[C@@H](O[C@@H]2O[C@H](C)C[C@H](N(C)C)[C@H]2O)[C@](C)(OC)C[C@@H](C)C(=O)[C@H](C)[C@@H](O)[C@]1(C)O [Clarithromycin] | 0.06 (≈ 0.0802 µM) | 0.004 to 0.12 (≈ 0.00535 to 0.16 µM) | 0.06 (≈ 0.0802 µM) | 0.06 (≈ 0.0802 µM) | 0.06 (≈ 0.0802 µM) | 0.008 to 0.06 (≈ 0.0107 to 0.0802 µM) | 0.03 (≈ 0.0401 µM) | 0.06 (≈ 0.0802 µM) | 0.03 to 0.06 (≈ 0.0401 to 0.0802 µM) | 0.06 (≈ 0.0802 µM) | 0.06 (≈ 0.0802 µM) | 0.03 to 0.12 (≈ 0.0401 to 0.16 µM) | 0.98 ± 2 | 0.03 (≈ 0.0401 µM) | 0.06 (≈ 0.0802 µM) | 0.03 to 0.06 (≈ 0.0401 to 0.0802 µM) | 0.016 (≈ 0.0214 µM) | 0.06 (≈ 0.0802 µM) | 0.016 to 0.06 (≈ 0.0214 to 0.0802 µM) | 0.03 (≈ 0.0401 µM) | MIC90 [5]: 0.06 µg/mL (≈ 0.0802 µM); MIC [5]: 0.004 to 0.06 µg/mL (≈ 0.00535 to 0.0802 µM); MIC50 [6]: 0.03 µg/mL (≈ 0.0401 µM); MIC90 [6]: 0.06 µg/mL (≈ 0.0802 µM); MIC [6]: 0.004 to 0.06 µg/mL (≈ 0.00535 to 0.0802 µM); Mean PAE [7]: 0.72 ± 2 h; MIC50 (Other Legionella spp.): 0.03 µg/mL (≈ 0.0401 µM); MIC90 (Other Legionella spp.): 0.12 µg/mL (≈ 0.16 µM); MIC (Other Legionella spp.): 0.004 to 0.12 µg/mL (≈ 0.00535 to 0.16 µM); MIC50 [8]: 0.06 µg/mL (≈ 0.0802 µM); MIC90 [8]: 0.06 µg/mL (≈ 0.0802 µM); MIC [8]: 0.06 µg/mL (≈ 0.0802 µM); MIC50 [9]: 0.03 µg/mL (≈ 0.0401 µM); MIC90 [9]: 0.06 µg/mL (≈ 0.0802 µM); MIC [9]: 0.016 to 0.06 µg/mL (≈ 0.0214 to 0.0802 µM); MIC50 [10]: 0.016 µg/mL (≈ 0.0214 µM); MIC90 [10]: 0.06 µg/mL (≈ 0.0802 µM); MIC [10]: 0.004 to 0.06 µg/mL (≈ 0.00535 to 0.0802 µM) |
| CC[C@H]1OC(=O)[C@H](C)[C@@H](O[C@H]2C[C@@](C)(OC)[C@@H](O)[C@H](C)O2)[C@H](C)[C@@H](O[C@@H]2O[C@H](C)C[C@H](N(C)C)[C@H]2O)[C@](C)(O)C[C@@H](C)C(=O)[C@H](C)[C@@H](O)[C@]1(C)O [Erythromycin] | 0.25 (≈ 0.341 µM) | 0.03 to 1 (≈ 0.0409 to 1.36 µM) | 1 (≈ 1.36 µM) | 0.25 (≈ 0.341 µM) | 0.5 (≈ 0.681 µM) | 0.008 to 0.5 (≈ 0.0109 to 0.681 µM) | 0.25 (≈ 0.341 µM) | 0.5 (≈ 0.681 µM) | 0.25 to 0.5 (≈ 0.341 to 0.681 µM) | 0.5 (≈ 0.681 µM) | 1 (≈ 1.36 µM) | 0.25 to 1 (≈ 0.341 to 1.36 µM) | 2.06 ± 2 | 0.25 (≈ 0.341 µM) | 0.5 (≈ 0.681 µM) | 0.06 to 1 (≈ 0.0818 to 1.36 µM) | 0.12 (≈ 0.164 µM) | 0.5 (≈ 0.681 µM) | 0.12 to 0.5 (≈ 0.164 to 0.681 µM) | 0.25 (≈ 0.341 µM) | MIC90 [5]: 0.25 µg/mL (≈ 0.341 µM); MIC [5]: 0.008 to 0.5 µg/mL (≈ 0.0109 to 0.681 µM); MIC50 [6]: 0.5 µg/mL (≈ 0.681 µM); MIC90 [6]: 0.5 µg/mL (≈ 0.681 µM); MIC [6]: 0.016 to 0.5 µg/mL (≈ 0.0218 to 0.681 µM); Mean PAE [7]: 0.93 ± 1 h; MIC50 (Other Legionella spp.): 0.5 µg/mL (≈ 0.681 µM); MIC90 (Other Legionella spp.): 1 µg/mL (≈ 1.36 µM); MIC (Other Legionella spp.): 0.016 to 1 µg/mL (≈ 0.0218 to 1.36 µM); MIC50 [8]: 0.25 µg/mL (≈ 0.341 µM); MIC90 [8]: 0.25 µg/mL (≈ 0.341 µM); MIC [8]: 0.25 µg/mL (≈ 0.341 µM); MIC50 [9]: 0.25 µg/mL (≈ 0.341 µM); MIC90 [9]: 0.5 µg/mL (≈ 0.681 µM); MIC [9]: 0.06 to 0.5 µg/mL (≈ 0.0818 to 0.681 µM); MIC50 [10]: 0.12 µg/mL (≈ 0.164 µM); MIC90 [10]: 0.25 µg/mL (≈ 0.341 µM); MIC [10]: 0.008 to 0.25 µg/mL (≈ 0.0109 to 0.341 µM) |
